Reference: US11530237B2, “Compositions and methods for treating CNS disorders” (Sage Therapeutics, Inc., priority 2014, dated 2022)
pIC50: −log10 of the molar value.

Assays:
[1] = molecular target: [35S]-TBPS binding, rat brain cortical membranes; assay: Steroid inhibition of TBPS binding ([35S]-TBPS radioligand displacement); conditions: 3 nM [35S]-TBPS, 5 μM GABA
Description: TBPS binding assays using rat brain cortical membranes in the presence of 5 μM GABA has been described (Gee et al, J. Pharmacol. Exp. Then 1987, 241, 346-353; Hawkinson et al, Mol. Pharmacol. 1994, 46, 977-985; Lewin, A. H et al., Mol. Pharmacol. 1989, 35, 189-194).
Briefly, cortices are rapidly removed following decapitation of carbon dioxide-anesthetized Sprague-Dawley rats (200-250 g). The cortices are homogenized in 10 volumes of […] using a glass/teflon homogenizer and centrifuged at 1500×g for 10 min at 4° C. The resultant supernatants are centrifuged at 10,000×g for 20 min at 4° C. to obtain the P2 pellets. The P2 pellets are resuspended in 200 mM NaCl/50 mM Na—K phosphate pH 7.4 buffer and centrifuged at 10,000×g for 10 min at 4° C. This washing procedure is repeated twice and the pellets are resuspended in 10 volumes of buffer. Aliquots (100 μL) of the membrane suspensions are incubated with 3 nM [^35S]-TBPS and 5 μL aliquots of test drug dissolved in dimethyl sulfoxide (DMSO) (final 0.5%) in the presence of 5 μM GABA. The incubation is brought to a final volume of 1.0 mL with buffer. […] Following a 90 min incubation at room temp, the assays are terminated by filtration through glass fiber filters (Schleicher and Schuell No. 32) using a cell harvester (Braudel) and rinsed three times with ice-cold buffer. Filter bound radioactivity is measured by liquid scintillation spectrometry. Non-linear curve fitting of the overall data for each drug averaged for each concentration is done using Prism (GraphPad).
Various compounds are or can be screened to determine their potential as modulators of [^35S]-TBPS binding in vitro. These assays are or can be performed in accordance with the above discussed procedures.

α1β2γ2 GABAA receptors = α1β2γ2 GABAA receptors (Homo sapiens (Human), UniProt P14867+P47870); assay: Patch clamp electrophysiology (QPatch) of recombinant α1β2γ2 GABAA receptors in LTK cells; format: cell-based; conditions: 10 μM test article, GABA EC20 = 2 μM; for Emax at 10 µM: read-out: GABA (α1β2γ2) Qpatch in Ltk, % efficacy at 10 μM
Description: Cellular electrophysiology is used to measure the pharmacological properties of our GABAA receptor modulators in heterologous cell systems. Each compound is tested for its ability to affect GABA mediated currents at a suhmaximal agonist dose (GABA EC20=2 μM). LTK cells are stably transfected with the α1β2γ2 subunits of the GABA receptor and CHO cells are transiently transfected with the α4β3δ subunits via the Lipofecatamine method. Cells were passaged at a confluence of about 50-80% and then seeded onto 35 mm sterile culture dishes containing 2 ml culture complete medium without antibiotics or antimycotics. Confluent clusters of cells are electrically coupled (Pritchett et al., Science, 1988, 242, 1306-1308). Because responses in distant cells are not adequately voltage clamped and because of uncertainties about the extent of coupling (Verdoom et al., Neuron 1990, 4, 919-928), cells were cultivated at a density that enables the recording of single cells (without visible connections to other cells).
Whole cell currents were measured with HEKA EPC-10 amplifiers using PatchMaster software or by using the high throughput QPatch platform (Sophion). Bath solution for all experiments contained (in mM): NaCl 137 mM, KCl 4 mM, CaCl2 1.8 mM, MgCl2 1 mM, HEPES 10 mM, D-Glucose 10 mM, pH (NaOH) 7.4. In some cases 0.005% cremophor was also added. Intracellular (pipette) solution contained: KCl 130 mM, MgCl2 1 mM, Mg-ATP 5 mM, HEPES 10 mM, EGTA 5 mM, pH 7.2. During experiments, cells and solutions were maintained at room temperature (19° C.-30° C.). For manual patch clamp recordings, cell culture dishes were placed on the dish holder of the microscope and continuously perfused (1 ml/min) with bath solution. After formation of a Gigaohm seal between the patch electrodes and the cell (-ipette resistance range: 2.5 MΩ-6.0 MΩ; seal resistance range:>1 GΩ) the cell membrane across the pipette tip was ruptured to assure electrical access to the cell interior (whole-cell patch-configuration). For experiments using the QPatch system, cells were transferred as suspension to the QPatch system in the bath solution and automated whole cell recordings were performed.
Cells were voltage clamped at a holding potential of −80 mV. For the analysis of test articles, GABA receptors were stimulated by 2 μM GABA after sequential pre-incubation of increasing concentrations of the test article. Pre-incubation duration was 30 s and the duration of the GABA stimulus was 2s. Test articles were dissolved in DMSO to form stock solutions (10 mM). Test articles were diluted to 0.01, 0.1, 1, and 10 μM in bath solution. All concentrations of test articles were tested on each cell. The relative percentage potentiation was defined as the peak amplitude in response to GABA EC20 in the presence of the test article divided by the peak amplitude in response to GABA EC20 alone, multiplied by 100. For Table 2. GABAA receptors α1β2γ2 and α4β3δ% efficacy: “A” 10-100, “B”>100-500, “C”>500; D indicates the data is not available or has not been determined.

| Compound | pIC50 [1] | Emax at 10 µM (α1β2γ2 GABAA receptors) | GABA (α1β2γ2) Qpatch in Ltk, % efficacy at 10 μM (α1β2γ2 GABAA receptors) |
| --- | --- | --- | --- |
| C[C@H](C(=O)[C@H]1CC[C@H]2[C@@H]3CC[C@H]4C[C@](C)(O)CC[C@]4(C)[C@H]3CC[C@]12C)n1ccnn1 [Compound 92, (R)-1-((3R,5S,8R,9S,10S,13S,14S,17S)-3-hydroxy-3,10,13-trimethylhexadecahydro-1H-cyclopenta[a]phenanthren-17-yl)-2-(1H-1,2,3-triazol-1-yl)propan-1-one] | < 6.30 |  |  |
| C[C@@H](C(=O)[C@H]1CC[C@H]2[C@@H]3CC[C@H]4C[C@](C)(O)CC[C@]4(C)[C@H]3CC[C@]12C)n1ccnn1 [Compound 93, (S)-1-((3R,5S,8R,9S,10S,13S,14S,17S)-3-hydroxy-3,10,13-trimethylhexadecahydro-1H-cyclopenta[a]phenanthren-17-yl)-2-(1H-1,2,3-triazol-1-yl)propan-1-one] | 6.30 to 7.00 |  |  |
| C[C@H](C(=O)[C@H]1CC[C@H]2[C@@H]3CC[C@H]4C[C@](C)(O)CC[C@]4(C)[C@H]3CC[C@]12C)n1nc2ccccc2n1 [Compound 98, (R)-2-(2H-benzo[d][1,2,3]triazol-2-yl)-1-((3R,5S,8R,9S,10S,13S,14S,17S)-3-hydroxy-3,10,13-trimethylhexadecahydro-1H-cyclopenta[a]phenanthren-17-yl)propan-1-one] | 7.00 to 7.30 |  |  |
| C[C@@H](C(=O)[C@H]1CC[C@H]2[C@@H]3CC[C@H]4C[C@](C)(O)CC[C@]4(C)[C@H]3CC[C@]12C)n1nc2ccccc2n1 [Compound 99, (S)-2-(2H-benzo[d][1,2,3]triazol-2-yl)-1-((3R,5S,8R,9S,10S,13S,14S,17S)-3-hydroxy-3,10,13-trimethylhexadecahydro-1H-cyclopenta[a]phenanthren-17-yl)propan-1-one] | 7.30 to 8.00 |  |  |
| C[C@H](C(=O)[C@H]1CC[C@H]2[C@@H]3CC[C@H]4C[C@](C)(O)CC[C@]4(C)[C@H]3CC[C@]12C)n1nnc2ccccc21 [Compound 100, (R)-2-(1H-benzo[d][1,2,3]triazol-1-yl)-1-((3R,5S,8R,9S,10S,13S,14S,17S)-3-hydroxy-3,10,13-trimethylhexadecahydro-1H-cyclopenta[a]phenanthren-17-yl)propan-1-one] | < 6.30 |  |  |
| C[C@@H](C(=O)[C@H]1CC[C@H]2[C@@H]3CC[C@H]4C[C@](C)(O)CC[C@]4(C)[C@H]3CC[C@]12C)n1nnc2ccccc21 [Compound 101, (S)-2-(1H-benzo[d][1,2,3]triazol-1-yl)-1-((3R,5S,8R,9S,10S,13S,14S,17S)-3-hydroxy-3,10,13-trimethylhexadecahydro-1H-cyclopenta[a]phenanthren-17-yl)propan-1-one] | 7.00 to 7.30 |  |  |
| CC(C)(C(=O)[C@H]1CC[C@H]2[C@@H]3CC[C@H]4C[C@](C)(O)CC[C@]4(C)[C@H]3CC[C@]12C)n1nnc2ccccc21 [Compound 102, 2-(1H-benzo[d][1,2,3]triazol-1-yl)-1-((3R,5S,8R,9S,10S,13S,14S,17S)-3-hydroxy-3,10,13-trimethylhexadecahydro-1H-cyclopenta[a]phenanthren-17-yl)-2-methylpropan-1-one] | < 6.30 |  |  |
| C[C@@]1(O)CC[C@@]2(C)[C@@H](CC[C@@H]3[C@@H]2CC[C@]2(C)[C@@H](C(=O)Cn4nc5ccc(F)c(F)c5n4)CC[C@@H]32)C1 [Compound 108, 2-(4,5-difluoro-2H-benzo[d][1,2,3]triazol-2-yl)-1-((3R,5S,8R,9S,10S,13S,14S,17S)-3-hydroxy-3,10,13-trimethylhexadecahydro-1H-cyclopenta[a]phenanthren-17-yl)ethanone] | 7.30 to 8.00 | 100 to 500% |  |
| C[C@@]1(O)CC[C@@]2(C)[C@@H](CC[C@@H]3[C@@H]2CC[C@]2(C)[C@@H](C(=O)Cn4nnc5ccc(Cl)c(F)c54)CC[C@@H]32)C1 [Compound 113] | 7.30 to 8.00 |  | B (>100-500) |
| C[C@@]1(O)CC[C@@]2(C)[C@@H](CC[C@@H]3[C@@H]2CC[C@]2(C)[C@@H](C(=O)Cn4cnc(C#N)c4)CC[C@@H]32)C1 [Compound 138] | 6.30 to 7.00 |  | C (>500) |
| C[C@@]1(O)CC[C@@]2(C)[C@@H](CC[C@@H]3[C@@H]2CC[C@]2(C)[C@@H](C(=O)Cn4cc(N)cn4)CC[C@@H]32)C1 [Compound 152, 2-(4-amino-1H-pyrazol-1-yl)-1-((3R,5S,8R,9S,10S,13S,14S,17S)-3-hydroxy-3,10,13-trimethylhexadecahydro-1H-cyclopenta[a]phenanthren-17-yl)ethanone] | 6.30 to 7.00 | 100 to 500% |  |
| CC(=O)Nc1cnn(CC(=O)[C@H]2CC[C@H]3[C@@H]4CC[C@H]5C[C@](C)(O)CC[C@]5(C)[C@H]4CC[C@]23C)c1 [Compound 153, N-(1-(2-((3R,5S,8R,9S,10S,13S,14S,17S)-3-hydroxy-3,10,13-trimethylhexadecahydro-1H-cyclopenta[a]phenanthren-17-yl)-2-oxoethyl)-1H-pyrazol-4-yl)acetamide] | 6.30 to 7.00 | 100 to 500% |  |
| C[C@@]1(O)CC[C@@]2(C)[C@@H](CC[C@@H]3[C@@H]2CC[C@]2(C)[C@@H](C(=O)Cn4cc5ccc(F)cc5n4)CC[C@@H]32)C1 [Compound 237] | 7.30 to 8.00 |  |  |
| C[C@@]1(O)CC[C@@]2(C)[C@@H](CC[C@@H]3[C@@H]2CC[C@]2(C)[C@@H](C(=O)Cn4ncc5ccc(F)cc54)CC[C@@H]32)C1 [Compound 238] | 7.00 to 7.30 |  |  |
| C[C@@]1(O)CC[C@@]2(C)[C@@H](CC[C@@H]3[C@@H]2CC[C@]2(C)[C@@H](C(=O)Cn4cc5cc(F)ccc5n4)CC[C@@H]32)C1 [Compound 239] | 7.30 to 8.00 |  |  |
| C[C@@]1(O)CC[C@@]2(C)[C@@H](CC[C@@H]3[C@@H]2CC[C@]2(C)[C@@H](C(=O)Cn4ncc5cc(F)ccc54)CC[C@@H]32)C1 [Compound 240] | 7.30 to 8.00 |  |  |
| C[C@@]1(O)CC[C@@]2(C)[C@@H](CC[C@@H]3[C@@H]2CC[C@]2(C)[C@@H](C(=O)Cn4nc5ccc(F)cc5n4)CC[C@@H]32)C1 [Compound 245] | 7.30 to 8.00 |  |  |
| C[C@@]1(O)CC[C@@]2(C)[C@@H](CC[C@@H]3[C@@H]2CC[C@]2(C)[C@@H](C(=O)Cn4nc5ccc(F)cc5n4)CC[C@@H]32)C1 [Compound 246] | > 8.00 |  |  |
| CSc1ccc2nnn(CC(=O)[C@H]3CC[C@H]4[C@@H]5CC[C@H]6C[C@](C)(O)CC[C@]6(C)[C@H]5CC[C@]34C)c2c1 [Compound 248] | > 8.00 |  |  |
| C[C@@]1(O)CC[C@@]2(C)[C@@H](CC[C@@H]3[C@@H]2CC[C@]2(C)[C@@H](C(=O)Cc4cccc(F)c4)CC[C@@H]32)C1 [Compound 257] | 6.30 to 7.00 |  |  |
